The values below come from patent US20050234076A1, “Triazolopyrimidines” (priority 2002, published 2005).

Common to all, as to assay type: in vivo
One assay concerns Venturia inaequalis. The assay is described as follows: Venturia Test (apple)/protective. The note with it: 240 h, apple plants, protective spray, evaluation 10 days after inoculation, 100% = no infection, read-out: Efficacy in %. How it is done:
Venturia Test (apple)/protective Solvents: 24.5 parts by weight of acetone • 24.5 parts by weight of dimethylacetamide Emulsifier: 1.0 parts by weight alkylaryl polyglycol ether To produce a suitable preparation of active compound, 1 part by weight of active compound is mixed with the stated amounts of solvent and emulsifier, and the concentrate is diluted with water to the desired concentration. To test for protective activity, young plants are sprayed with the preparation of active compound at the stated application rate. […] The plants are then placed in a greenhouse at about 21° C. and a relative atmospheric humidity of about 90%.

The next assay concerns Alternaria solani. The assay is described as follows: Alternaria Test (tomato)/protective. The note with it: tomato plants, protective spray, 750 g/ha, evaluation 7 days after inoculation; 100% = no infection. The protocol: Alternaria Test (tomato)/protective Solvent: 49 parts by weight of N,N-dimethylformamide Emulsifier: 1 part by weight of alkylaryl polyglycol ether To produce a suitable preparation of active compound, 1 part by weight of active compound is mixed with the stated amounts of solvent and emulsifier, and the concentrate is diluted with water to the desired concentration. […] The plants then remain at 96% relative atmospheric humidity and at a temperature of 20° C.

Another assay relates to Pyricularia oryzae. Particulars: rice plants, protective spray, 500 g/ha, evaluation 7 days after inoculation; 100% = no infection.

`Fc1cccc(Cl)c1-c1c(Cl)nc2ncnn2c1N1OC2CCC1C2` (stereo not drawn) [drawing 58]: in the assay with Venturia inaequalis, the pest or weed control at 100 g/ha was determined as 100%.
On to `CC1CCON1c1c(-c2c(F)cccc2Cl)c(Cl)nc2ncnn12` (stereo not drawn) [drawing 59], for which the pest or weed control at 100 g/ha in the assay with Venturia inaequalis came out at 100%.
For `Fc1ccc(-c2c(Cl)nc3ncnn3c2N2OC3CCC2C3)c(F)c1` (stereo not drawn) [drawing 60], the pest or weed control at 100 g/ha in the assay on Venturia inaequalis came to 100%.
For `CC1CCCON1c1c(-c2ccccc2Cl)c(Cl)nc2ncnn12` (stereo not drawn) [drawing 61], in the assay with Venturia inaequalis, the pest or weed control at 100 g/ha came out at 99%.
Turning to `Fc1ccc(-c2c(Cl)nc3ncnn3c2N2OC3CCC2C3)c(Cl)c1` (stereo not drawn) [drawing 62], the pest or weed control at 100 g/ha in the assay with Venturia inaequalis stood at 100%.
For the compound `Fc1cc(F)c(-c2c(Cl)nc3ncnn3c2N2CCC=N2)c(F)c1` [drawing 63], in the assay on Venturia inaequalis, the pest or weed control at 100 g/ha came out at 96%.
The same measure, in the same setting: the value for `Clc1cccc(Cl)c1-c1c(Cl)nc2ncnn2c1N1CCCCN1` [drawing 64] was 99%; that for `Fc1cc(F)c(-c2c(Cl)nc3ncnn3c2N2NC3CCC2C3)c(F)c1` (stereo not drawn) [drawing 65] was 93%; that for `Fc1cccc(Cl)c1-c1c(Cl)nc2ncnn2c1N1NC2CCC1C2` (stereo not drawn) [drawing 66] was 100%.
On to `Fc1cccc(F)c1-c1c(Cl)nc2ncnn2c1N1CCCCN1` [drawing 67], for which the pest or weed control at 100 g/ha in the assay on Venturia inaequalis turned out to be 96%.
On to `Fc1cc(F)c(-c2c(Cl)nc3ncnn3c2N2CCCCN2)c(C(F)(F)F)c1` [drawing 68], for which the pest or weed control at 100 g/ha in the assay with Venturia inaequalis turned out to be 100%.
Turning to `Clc1ccc(-c2c(Cl)nc3ncnn3c2N2CCCCN2)c(Cl)c1` [drawing 69], the pest or weed control at 100 g/ha in the assay with Venturia inaequalis was found to be 95%.
Consider `Fc1cc(C(F)(F)F)cc(F)c1-c1c(Cl)nc2ncnn2c1N1CCCCN1` [drawing 70], for which, in the assay with Venturia inaequalis, the pest or weed control at 100 g/ha stood at 100%.
Still for that read-out and setting: then `Fc1cc(F)c(-c2c(Br)nc3ncnn3c2N2CCCCN2)c(F)c1` [drawing 71], with 93%.
The compound `Fc1cc(F)c(-c2c(Cl)nc3ncnn3c2N2Cc3ccccc3CO2)c(F)c1` [drawing 100] showed an Efficacy in % in the assay on Alternaria solani of 100%.
Consider `Fc1cc(F)c(-c2c(Cl)nc3ncnn3c2N2CCCCO2)c(F)c1` [drawing 101], for which, in the assay on Alternaria solani, the Efficacy in % came to 100%.
As to `Fc1ccc(-c2c(Cl)nc3ncnn3c2N2CCCCO2)c(Cl)c1` [drawing 102], in the assay with Alternaria solani, the Efficacy in % stood at 100%.
`Fc1cc(F)c(-c2c(Cl)nc3ncnn3c2N2CCC=N2)c(F)c1` [drawing 103] showed an Efficacy in % with Alternaria solani of 95%.
As to `Fc1ccc(-c2c(Cl)nc3ncnn3c2N2CCCCO2)c(Cl)c1` [drawing 104], the Efficacy in % with Pyricularia oryzae is given as 100%.
`Fc1ccc(-c2c(Cl)nc3ncnn3c2N2CCCCO2)c(F)c1` [drawing 105] registered an Efficacy in % with Pyricularia oryzae of 100%.
On the same count and under the same terms, then `Fc1cccc(Cl)c1-c1c(Cl)nc2ncnn2c1N1CCCCN1` [drawing 106], with 100%.
